Experimental data taken from patent publication US7084140B2, “Arylglycinamide derivatives, method of producing said derivatives and pharmaceutical compositions containing these compounds” (Boehringer Ingelheim Pharma GmbH & Co. KG, priority 1996, dated 2006).
Counter-ions that a name gives are not always drawn.

biological target: T1, NK1-receptor (substance P-receptor) (Homo sapiens, UniProt P25103); assay: Receptor affinity for the NK1-receptor, displacement of 125I-labelled substance P on IM-9 cells; assay type: binding; settings: human lymphoblastoma cells (IM-9) with cloned NK1-receptors
T1 construct: expressed in transfected cells; host or cells: IM-9 human lymphoblastoma cells
T1 sequence (P25103 whole entry): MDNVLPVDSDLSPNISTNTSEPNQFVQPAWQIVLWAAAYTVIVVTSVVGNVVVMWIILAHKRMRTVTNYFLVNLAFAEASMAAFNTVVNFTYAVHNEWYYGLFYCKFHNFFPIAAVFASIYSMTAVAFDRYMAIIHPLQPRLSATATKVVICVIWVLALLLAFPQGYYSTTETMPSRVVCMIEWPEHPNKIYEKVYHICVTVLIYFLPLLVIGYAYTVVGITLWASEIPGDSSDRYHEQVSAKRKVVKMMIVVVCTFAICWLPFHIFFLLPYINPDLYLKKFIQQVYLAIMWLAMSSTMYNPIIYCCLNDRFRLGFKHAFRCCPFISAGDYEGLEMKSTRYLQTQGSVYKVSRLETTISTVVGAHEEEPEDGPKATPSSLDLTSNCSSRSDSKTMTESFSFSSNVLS
Experimental: The receptor affinity for the NK1-receptor (substance P-receptor) is determined on human lymphoblastoma cells (IM-9) with cloned NK1-receptors, by measuring the displacement of ^125I-labelled substance P. The K1-values thus obtained show the efficacy of the compounds: […]

| Ki [nM] | SMILES |
| --- | --- |
| 1.4 | CN1CCCN(C(C(=O)N(C)CCc2cc(C(F)(F)F)cc(C(F)(F)F)c2)c2ccccc2)CC1 (stereo not drawn) [Example 4] |
| 1.6 | CN(CCc1cc(C(F)(F)F)cc(C(F)(F)F)c1)C(=O)C(c1ccccc1)N1CCN(CCO)CC1 (stereo not drawn) [Example 26] |
| 1.1 | CN1CCN(C(C(=O)N(C)CCc2cc(C(F)(F)F)cc(C(F)(F)F)c2)c2ccccc2)CC1 (stereo not drawn) [Example 64] |
| 2.2 | CN(CCc1cc(C(F)(F)F)cc(C(F)(F)F)c1)C(=O)C(c1ccccc1)N1CCC(O)CC1 (stereo not drawn) [Example 22] |
| 1.4 | CCCN1CCN(C(C(=O)N(C)CCc2cc(C(F)(F)F)cc(C(F)(F)F)c2)c2ccccc2)CC1 (stereo not drawn) [Example 63] |
| 1 | CN(CCc1cc(C(F)(F)F)cc(C(F)(F)F)c1)C(=O)C(c1ccccc1)N1CCNCC1 (stereo not drawn) [Example 2] |
| 1.5 | CC(C)N1CCN(C(C(=O)N(C)CCc2cc(C(F)(F)F)cc(C(F)(F)F)c2)c2ccccc2)CC1 (stereo not drawn) [Example 74] |
| 1.5 | CN(CCc1cc(C(F)(F)F)cc(C(F)(F)F)c1)C(=O)C(c1ccccc1)N1CCC(N(C)C)CC1 (stereo not drawn) [Example 5] |
| 2.9 | CC(C)(Cc1cc(C(F)(F)F)cc(C(F)(F)F)c1)NC(=O)C(c1ccccc1)N1CCNCC1 (stereo not drawn) [Example 34] |
| 0.96 | CNC1CCN(C(C(=O)N(C)CCc2cc(C(F)(F)F)cc(C(F)(F)F)c2)c2ccccc2)CC1 (stereo not drawn) [Example 18] |
| 0.98 | CCN(CC)C1CCN(C(C(=O)N(C)CCc2cc(C(F)(F)F)cc(C(F)(F)F)c2)c2ccccc2)CC1 (stereo not drawn) [Example 15] |
| 1.8 | COCCN1CCN(C(C(=O)N(C)CCc2cc(C(F)(F)F)cc(C(F)(F)F)c2)c2ccccc2)CC1 (stereo not drawn) [Example 30] |
| 2 | CC(C)NC1CCN(C(C(=O)N(C)CCc2cc(C(F)(F)F)cc(C(F)(F)F)c2)c2ccccc2)CC1 (stereo not drawn) [Example 20] |
| 7.75 | CN(CCc1cc(C(F)(F)F)cc(C(F)(F)F)c1)C(=O)C(c1ccccc1)N1CCC(N)CC1 (stereo not drawn) [Example 17] |
| 1.2 | CC(C)N1CCN(C(C(=O)N(C)CCc2cc(C(F)(F)F)cc(C(F)(F)F)c2)c2ccccc2)CC1 (racemic) [Example 1, (R,S)-1-i-propyl-4-[2-phenylacetic acid-N-methyl-N-(3,5-bistrifluoromethylphenylethyl)]-amide dihydrochloride] |
| 0.44 | CN(CCc1cc(C(F)(F)F)cc(C(F)(F)F)c1)C(=O)[C@H](c1ccccc1)N1CCNCC1 [Example 75] |
| 2.2 | C=CCN1CCN(C(C(=O)N(C)CCc2cc(C(F)(F)F)cc(C(F)(F)F)c2)c2ccccc2)CC1 (stereo not drawn) [Example 24] |
| 1.3 | CN(C)CCN1CCN(C(C(=O)N(C)CCc2cc(C(F)(F)F)cc(C(F)(F)F)c2)c2ccccc2)CC1 (stereo not drawn) [Example 28] |
| 6 | C#CCN1CCN(C(C(=O)N(C)CCc2cc(C(F)(F)F)cc(C(F)(F)F)c2)c2ccccc2)CC1 (stereo not drawn) [Example 25] |

The remaining lines, values behind:

| SMILES | Ki [nM] |
| --- | --- |
| CC(C)N1CCN(C(C(=O)NC(C)(C)Cc2cc(C(F)(F)F)cc(C(F)(F)F)c2)c2ccccc2)CC1 (stereo not drawn) [Example 33] | 7.4 |
| CN(CCc1cc(C(F)(F)F)cc(C(F)(F)F)c1)C(=O)C(c1ccccc1)N1CCN(CC(=O)N2CCCC2)CC1 (stereo not drawn) [Example 11] | 3.8 |
| CC(C)N1CCN(C(C(=O)N(C)CCc2cc(C(F)(F)F)cc(C(F)(F)F)c2)c2cccc3c2OCO3)CC1 (stereo not drawn) [Example 73] | 2 |
| CN(CCc1cc(C(F)(F)F)cc(C(F)(F)F)c1)C(=O)C(c1ccccc1)N1CCC(N(C)CCO)CC1 (stereo not drawn) [Example 16] | 0.9 |
| CN(CCc1cc(C(F)(F)F)cc(C(F)(F)F)c1)C(=O)C(c1ccccc1)N1CCC(N(CCO)CCO)CC1 (stereo not drawn) [Example 55] | 1.25 |
| CC(C)N1CCN(C(C(=O)N(C)CCc2cc(C(F)(F)F)cc(C(F)(F)F)c2)c2ccccc2)CC1=O (stereo not drawn) [Example 32] | 1.3 |
| CN(CCc1cc(C(F)(F)F)cc(C(F)(F)F)c1)C(=O)C(c1ccccc1)N1CCC(N(C)CCCCO)CC1 (stereo not drawn) [Example 76] | 2 |
| CN(CCc1cc(C(F)(F)F)cc(C(F)(F)F)c1)C(=O)C(c1ccccc1)N1CCC(NC2CCCC2)CC1 (stereo not drawn) [Example 19] | 1.17 |
| CN(CCc1cc(C(F)(F)F)cc(C(F)(F)F)c1)C(=O)C(c1ccccc1)N1CCC(N2CCC(N3CCCCC3)CC2)CC1 (stereo not drawn) [Example 13] | 2.4 |
| CN1CCC(N2CCN(C(C(=O)N(C)CCc3cc(C(F)(F)F)cc(C(F)(F)F)c3)c3ccccc3)CC2)CC1 (stereo not drawn) [Example 9] | 2.5 |
| CN(CCc1cc(C(F)(F)F)cc(C(F)(F)F)c1)C(=O)C(c1ccccc1)N1CCC(N2CCN(CC(N)=O)CC2)CC1 (stereo not drawn) [Example 12] | 5 |
| COc1ccc(C(C(=O)N(C)CCc2cc(C(F)(F)F)cc(C(F)(F)F)c2)N2CCN(C(C)C)CC2)cc1OC (stereo not drawn) [Example 65] | 5.7 |
| CN(CCc1cc(C(F)(F)F)cc(C(F)(F)F)c1)C(=O)C(c1ccccc1)N1CCN(c2ncccn2)CC1 (stereo not drawn) [Example 3] | 19 |
| CN1CCN(C2CCN(C(C(=O)N(C)CCc3cc(C(F)(F)F)cc(C(F)(F)F)c3)c3ccccc3)CC2)CC1 (stereo not drawn) [Example 8] | 1.8 |
| CN(CCc1cc(C(F)(F)F)cc(C(F)(F)F)c1)C(=O)C(c1ccccc1)N1CCC(NCC(=O)N2CCOCC2)CC1 (stereo not drawn) [Example 23] | 2.5 |
| COc1ccc(C(C(=O)N(C)CCc2cc(C(F)(F)F)cc(C(F)(F)F)c2)N2CCNCC2)cc1OC (stereo not drawn) [Example 47] | 1.7 |

biological target: T2, NK1 (Cavia porcellus, UniProt P30547); assay: Inhibition of lowering of blood pressure caused by NK1 in anaesthetised guinea pigs; assay type: in vivo; settings: 1 mg/kg administered into the duodenum, NK1-agonist [βAla4, Sar9, Met(O2)11]SP(4-11) 0.2 μmol/kg i.v.
T2 construct: from tissue; host or cells: whole animal (anaesthetised guinea pig)
T2 sequence (P30547 whole entry): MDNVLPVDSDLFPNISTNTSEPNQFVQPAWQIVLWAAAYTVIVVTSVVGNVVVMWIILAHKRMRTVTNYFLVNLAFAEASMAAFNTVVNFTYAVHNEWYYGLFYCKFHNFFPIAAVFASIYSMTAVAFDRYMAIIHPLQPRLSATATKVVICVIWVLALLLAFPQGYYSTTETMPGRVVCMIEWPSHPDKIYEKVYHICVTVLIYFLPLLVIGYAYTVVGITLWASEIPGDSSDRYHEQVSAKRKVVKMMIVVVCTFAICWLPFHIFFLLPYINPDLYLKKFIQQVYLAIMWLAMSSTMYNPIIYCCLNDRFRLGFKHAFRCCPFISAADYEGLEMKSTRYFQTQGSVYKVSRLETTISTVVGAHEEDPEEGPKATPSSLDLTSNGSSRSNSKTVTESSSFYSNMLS
Experimental: Inhibition of lowering of blood pressure caused by NK1 in anaesthetised guinea pigs.
Guinea pigs weighing 300–500 grams were anaesthetised with pentobarbital (50 mg/kg i.p.), intubated and artificially ventilated. They were ventilated with 10 ml/kg of air at a frequency of 60 breaths per minute. The carotid artery was canulated and the arterial blood pressure was recorded. A polyethylene tube was inserted into the jugular vein for the intravenous supply of substances.
A temporary reduction in blood pressure was brought about at intervals of 10 minutes by intravenous administration of the NK1-agonist [βAla^4, Sar^9, Met (O2)^11]Sp(4-11)
[drawing 30] in a dose of 0.2 μmol/kg. After the blood pressure thus produced had been measured, the test compound was introduced into the duodenum and the NK1-agonist was again injected every 10 minutes.
The results were expressed as a % inhibition of the reduction in blood pressure caused by the NK1-agonist specified.

| SMILES | % inhibition of the reduction in blood pressure caused by the NK1-agonist [%] |
| --- | --- |
| CC(C)N1CCN(C(C(=O)N(C)CCc2cc(C(F)(F)F)cc(C(F)(F)F)c2)c2ccccc2)CC1 (racemic) [Example 1, (R,S)-1-i-propyl-4-[2-phenylacetic acid-N-methyl-N-(3,5-bistrifluoromethylphenylethyl)]-amide dihydrochloride] | 80 |
